Assay results taken from patent publication US9890166B2, “Imidazopyrrolidine derivatives and their use in the treatment of disease” (NOVARTIS AG, priority 2013, dated 2018).
pIC50: −log10 of the molar value.

Key:
[1] = biological target: BRD3 (His-Brd3(20-477)) (Homo sapiens (Human), UniProt Q15059); experiment: TR-FRET in-vitro binding assay for BRD3; conditions: single determination or n ≧ 2 independent determinations, read-out: Biochemical IC50 BRD3
In short: (§1)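 In this TR-FRET format, each compound was tested as an 8-point dilution series, single point per concentration, dispensed from 90% DMSO solution. Incubation lasted 35 minutes at 30° C.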

[2] = biological target: BRD2 (His-Brd2(60-472)) (Homo sapiens (Human), UniProt P25440); experiment: TR-FRET in-vitro binding assay for BRD2; conditions: single determination or n ≧ 2 independent determinations, read-out: Biochemical IC50 BRD2
In short: as §1

[3] = tested on: K-562 cells; experiment: Cell growth inhibition assay (CellTiter-Glo), K-562; conditions: for GI50: Homo sapiens, K562, read-out: K-562 GI50; for K-562 TGI: K-562 cells, total growth inhibition, CellTiter-Glo;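 for all read-outs here: cellular ATP measured by luminescence after 4 days of exposure, 3-fold dilution series from 10 µM, DMSO vehicle-treated cells define 100%, cell-free medium wells −100%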
[4] = biological target: nuclear BRD4-NUT foci in HCC2494 NUT midline carcinoma cells (Homo sapiens, UniProt O60885); experiment: cell-based
[5] = biological target: CREBBP bromodomain (His-CREBBP(1081-1197)) (Homo sapiens (Human), UniProt Q92793); experiment: AlphaScreen in-vitro binding assay for CREBBP; conditions: single determination or n ≧ 2 independent determinations, read-out: Biochemical IC50 CREBBP
In short: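 Detection used nickel-chelate acceptor plus streptavidin donor AlphaScreen beads, 1 h room temperature. Percent inhibition fitted by non-linear regression to IC50.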

[6] = biological target: BRD4 (His-Brd4(44-477)) (Homo sapiens (Human), UniProt O60885); experiment: TR-FRET in-vitro binding assay for BRD4; conditions: single determination or n ≧ 2 independent determinations, read-out: Biochemical IC50 BRD4
In short: as §1

[7] = tested on: MV-4-11 cells; experiment: Cell growth inhibition assay (CellTiter-Glo), MV-4-11; conditions: for GI50: Homo sapiens, MV4-11, read-out: MV-4-11 GI50; for MV-4-11 TGI: MV-4-11 cells, total growth inhibition, CellTiter-Glo;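 for all read-outs here: cellular ATP luminescence after 4 days, 3-fold dilution series from 10 µM top dose, vehicle (0.1% DMSO) set to 100%, cell-free medium set to −100%, day 0 corrected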
[8] = tested on: THP-1 cells; experiment: Cell growth inhibition assay (CellTiter-Glo), THP-1; conditions: for GI50: Homo sapiens, THP-1, read-out: THP-1 GI50; for THP-1 TGI: THP-1 cells, total growth inhibition, CellTiter-Glo;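 for all read-outs here: viability read as cellular ATP luminescence after 4 days, 3-fold dilution series from 10 µM, DMSO vehicle-treated cells taken as 100%, cell-free medium wells as −100%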

Sequence of BRD2 (His-Brd2(60-472)) (P25440 60-472): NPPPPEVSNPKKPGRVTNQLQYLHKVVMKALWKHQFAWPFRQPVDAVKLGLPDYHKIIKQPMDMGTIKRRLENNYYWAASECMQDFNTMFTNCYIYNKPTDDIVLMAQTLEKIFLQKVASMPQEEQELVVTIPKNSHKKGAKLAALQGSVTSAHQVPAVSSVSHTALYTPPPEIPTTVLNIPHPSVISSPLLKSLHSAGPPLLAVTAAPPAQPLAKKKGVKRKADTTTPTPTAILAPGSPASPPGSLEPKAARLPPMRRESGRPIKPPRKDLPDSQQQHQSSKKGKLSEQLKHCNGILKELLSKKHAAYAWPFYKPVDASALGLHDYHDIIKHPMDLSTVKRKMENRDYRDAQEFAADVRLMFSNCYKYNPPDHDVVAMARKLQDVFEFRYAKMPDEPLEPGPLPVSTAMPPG
Sequence of CREBBP bromodomain (His-CREBBP(1081-1197)) (Q92793 1081-1197): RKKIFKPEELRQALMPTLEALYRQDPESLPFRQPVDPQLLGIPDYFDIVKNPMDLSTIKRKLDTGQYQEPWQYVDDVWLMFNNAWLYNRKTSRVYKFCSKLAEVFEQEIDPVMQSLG
Sequence of BRD3 (His-Brd3(20-477)) (Q15059 20-477): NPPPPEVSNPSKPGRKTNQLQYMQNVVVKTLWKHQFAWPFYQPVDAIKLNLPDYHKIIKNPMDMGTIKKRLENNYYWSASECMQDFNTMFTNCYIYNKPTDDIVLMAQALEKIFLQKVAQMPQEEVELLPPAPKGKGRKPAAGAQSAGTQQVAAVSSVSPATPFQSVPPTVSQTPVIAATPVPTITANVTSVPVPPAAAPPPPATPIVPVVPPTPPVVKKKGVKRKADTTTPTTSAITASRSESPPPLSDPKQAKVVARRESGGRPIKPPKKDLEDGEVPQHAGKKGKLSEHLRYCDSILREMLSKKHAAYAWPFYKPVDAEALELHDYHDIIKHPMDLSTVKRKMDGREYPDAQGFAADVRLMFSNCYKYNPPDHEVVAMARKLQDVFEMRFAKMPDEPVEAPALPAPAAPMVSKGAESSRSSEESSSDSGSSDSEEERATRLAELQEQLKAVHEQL

SMILES | pIC50 [1] | pIC50 [2] | GI50 [3] | pIC50 [4] | pIC50 [5] | pIC50 [6] | GI50 [7] | GI50 [8] | K-562 TGI [3] | MV-4-11 TGI [7] | THP-1 TGI [8]
Cc1cc(N2C(=O)c3c(nc(C)n3C(C)C)C2c2ccc(Cl)cc2)cc2c1nnn2C (racemic) [Example 3, 6-(4-chlorophenyl)-5-(3,7-dimethyl-3H-benzo[d][1,2,3]triazol-5-yl)-3-isopropyl-2-methyl-5,6-dihydropyrrolo[3,4-d]imidazol-4(3H)-one] | 7.92 | 7.57 | 55.1 nM | 7.91 | 5.59 | 7.82 | 8.19 nM | 13.7 nM | >10000 nM | 14.45 nM | 27.55 nM
Cc1cc(N2C(=O)c3nc(C)n(C(C)C)c3C2c2ccc(Cl)cc2)nn2c(C)nnc12 (racemic) [Example 18, 6-(4-chlorophenyl)-5-(3,8-dimethyl-[1,2,4]triazolo[4,3-b]pyridazin-6-yl)-1-isopropyl-2-methyl-5,6-dihydropyrrolo[3,4-d]imidazol-4(1H)-one] | 7.96 | 7.72 | 91 nM | 8.12 | 4.56 | 7.89 | 11.2 nM | 15.9 nM | >10000 nM | 26.95 nM | 35.6 nM
COc1ccc(-c2nc3c([nH]2)C(c2ccc(Cl)cc2)N(c2cc(C)c(=O)n(C)c2)C3=O)cn1 (centres unmarked) [Example 4, 6-(4-chlorophenyl)-5-(1,5-dimethyl-6-oxo-1,6-dihydropyridin-3-yl)-2-(6-methoxypyridin-3-yl)-5,6-dihydropyrrolo[3,4-d]imidazol-4(1H)-one] | 7.17 | 7.17 | 254 nM | 7.13 | 5.85 | 7.19 | 69.5 nM | 110 nM | >10000 nM | 116 nM | 207 nM
COc1ccc(-c2nc3c([nH]2)[C@@H](c2ccc(Cl)cc2)N(c2cc(C)c(=O)n(C)c2)C3=O)cn1 [Example 5, (R)-6-(4-chlorophenyl)-5-(1,5-dimethyl-6-oxo-1,6-dihydropyridin-3-yl)-2-(6-methoxypyridin-3-yl)-5,6-dihydropyrrolo[3,4-d]imidazol-4(1H)-one] | 7.42 | 7.49 | 221 nM | 7.17 | 6.25 | 7.52 | 37.1 nM | 60 nM | >10000 nM | 73.9 nM | 106 nM
COc1ccc(-c2nc3c(n2C)C(=O)N(c2cc(C)c(=O)n(C)c2)C3c2ccc(Cl)cc2)cn1 (centres unmarked) [Example 6, 6-(4-chlorophenyl)-5-(1,5-dimethyl-6-oxo-1,6-dihydropyridin-3-yl)-2-(6-methoxypyridin-3-yl)-3-methyl-5,6-dihydropyrrolo[3,4-d]imidazol-4(3H)-one] | 7.06 | 7.06 | 230 nM | 7.06 | 5.57 | 7.04 | 60.1 nM | 161 nM | >10000 nM | 102 nM | 324 nM
COc1ccc(-c2nc3c(n2C)C(=O)N(c2cc(C)c(=O)n(C)c2)[C@@H]3c2ccc(Cl)cc2)cn1 [Example 7, (R)-6-(4-chlorophenyl)-5-(1,5-dimethyl-6-oxo-1,6-dihydropyridin-3-yl)-2-(6-methoxypyridin-3-yl)-3-methyl-5,6-dihydropyrrolo[3,4-d]imidazol-4(3H)-one] | 7.32 | 7.22 | 170 nM | 7.13 | 5.82 | 7.25 | 44.6 nM | 65.5 nM | >10000 nM | 85 nM | 111 nM
COc1ccc(-c2nc3c(n2C)C(c2ccc(Cl)cc2)N(c2cc(C)c(=O)n(C)c2)C3=O)cn1 (centres unmarked) [Example 8, 6-(4-chlorophenyl)-5-(1,5-dimethyl-6-oxo-1,6-dihydropyridin-3-yl)-2-(6-methoxypyridin-3-yl)-1-methyl-5,6-dihydropyrrolo[3,4-d]imidazol-4(1H)-one] | 7.10 | 7.04 | 309 nM | 7.04 | 6.01 | 7.07 | 51 nM | 152 nM | >10000 nM | 98 nM | 314 nM
COc1ccc(-c2nc3c(n2C(C)C)C(c2ccc(Cl)cc2)N(c2cc(C)c4nnc(C)n4c2)C3=O)cn1 (centres unmarked) [Example 9, 6-(4-chlorophenyl)-5-(3,8-dimethyl-[1,2,4]triazolo[4,3-a]pyridin-6-yl)-1-isopropyl-2-(6-methoxypyridin-3-yl)-5,6-dihydropyrrolo[3,4-d]imidazol-4(1H)-one] | 7.47 | 7.37 | 258 nM | 5.68 | < 4.43 | 7.47 | 48.4 nM | 98.7 nM | >10000 nM | 94.2 nM | 175 nM
COc1ncc(-c2nc3c(n2C(C)C)C(c2ccc(Cl)cc2)N(c2cc(C)c4nnc(C)n4c2)C3=O)c(OC)n1 (centres unmarked) [Example 10, 6-(4-chlorophenyl)-2-(2,4-dimethoxypyrimidin-5-yl)-5-(3,8-dimethyl-[1,2,4]triazolo[4,3-a]pyridin-6-yl)-1-isopropyl-5,6-dihydropyrrolo[3,4-d]imidazol-4(1H)-one] | 7.23 | 7.22 | 326 nM | 6.75 | 5.20 | 7.35 | 29.7 nM | 158 nM | >10000 nM | 78.5 nM | 302 nM

More lines, main results first:

pIC50 [1] | pIC50 [2] | GI50 [3] | pIC50 [4] | pIC50 [5] | pIC50 [6] | GI50 [7] | GI50 [8] | SMILES | K-562 TGI [3] | MV-4-11 TGI [7] | THP-1 TGI [8]
7.41 | 7.39 | 114 nM | 7.79 | 5.35 | 7.43 | 11.3 nM | 26.1 nM | Cc1cc(N2C(=O)c3nc(C4CC4)n(C(C)C)c3C2c2ccc(Cl)cc2)cn2c(C)nnc12 (racemic) [Example 13, 6-(4-chlorophenyl)-2-cyclopropyl-5-(3,8-dimethyl-[1,2,4]triazolo[4,3-a]pyridin-6-yl)-1-isopropyl-5,6-dihydropyrrolo[3,4-d]imidazol-4(1H)-one] | >10000 nM | 27.15 nM | 59.45 nM
7.60 | 7.39 | 330 nM | 6.96 | 5.24 | 7.74 | 48.5 nM | 90.9 nM | Cc1cc(N2C(=O)c3nc(C4=CCOC4)n(C(C)C)c3C2c2ccc(Cl)cc2)cn2c(C)nnc12 (centres unmarked) [Example 11, 6-(4-chlorophenyl)-2-(2,5-dihydrofuran-3-yl)-5-(3,8-dimethyl-[1,2,4]triazolo[4,3-a]pyridin-6-yl)-1-isopropyl-5,6-dihydropyrrolo[3,4-d]imidazol-4(1H)-one] | >10000 nM | 97.75 nM | 202.5 nM
7.68 | 7.37 | 1040 nM | 6.43 | 5.05 | 7.70 | 42.2 nM | 264 nM | Cc1cc(N2C(=O)c3nc(C4=CCCN(C)C4)n(C(C)C)c3C2c2ccc(Cl)cc2)cn2c(C)nnc12 (centres unmarked) [Example 12, 6-(4-chlorophenyl)-5-(3,8-dimethyl-[1,2,4]triazolo[4,3-a]pyridin-6-yl)-1-isopropyl-2-(1-methyl-1,2,5,6-tetrahydropyridin-3-yl)-5,6-dihydropyrrolo[3,4-d]imidazol-4(1H)-one] | >10000 nM | 78.45 nM | 715 nM
7.82 | 7.48 | 203 nM | 7.39 | 5.64 | 7.80 | 20.4 nM | 66 nM | Cc1cc(N2C(=O)c3nc(C4=CCOCC4)n(C(C)C)c3C2c2ccc(Cl)cc2)cn2c(C)nnc12 (centres unmarked) [Example 14, 6-(4-chlorophenyl)-2-(3,6-dihydro-2H-pyran-4-yl)-5-(3,8-dimethyl-[1,2,4]triazolo[4,3-a]pyridin-6-yl)-1-isopropyl-5,6-dihydropyrrolo[3,4-d]imidazol-4(1H)-one] | >10000 nM | 38.8 nM | 120 nM
